Data published in patent US20250027958A1, “DIAGNOSTIC AND THERAPEUTIC METHODS USING HEME AS A BIOMARKER FOR CELLULAR AND TISSUE DAMAGE” (Beth Israel Deaconess Medical Center, Inc., priority 2021, published 2025).
“Also recorded” adds a separate entry of the source.

System: male C57BL/6 mice
Settings: DOX 20 mg/kg i.p., blood collected 1 hr later
Method: In brief, for the assessment of acute cytotoxicity, male C57BL/6 mice (10-12 weeks old) are administered HBI-002 (10 ml/kg, per os) or a control vehicle (10ml/kg, per os) at 0 hr and 1 hr, followed by administration of doxorubicin at 1.25 hr (20 mg/kg, intraperitoneal injection) and blood and tissue collection at 2.25 hr.
Male C57BL/6 mice (10-12 weeks old) were administered HBI-002 (10 ml/kg, per os) or a control vehicle (10 ml/kg, per os) at 0 hr and 1 hr, followed by administration of DOX at 1.25 hr (20 mg/kg, intraperitoneal injection) and blood and tissue collection at 2.25 hr (FIG. 1).

Structure (SMILES): COc1cccc2c1C(=O)c1c(O)c3c(c(O)c1C2=O)C[C@@](O)(C(=O)CO)C[C@@H]3O[C@H]1C[C@H](N)[C@H](O)[C@H](C)O1 [DOX, Doxorubicin]
- serum heme upon administration of DOX: significant increases in heme levels; also recorded: significant increase in serum heme
